Measured values taken from patent publication US20250057864A1, “COMPOSITION FOR IMPROVING EXERCISE PERFORMANCE COMPRISING GYPENOSIDE COMPOUND AS ACTIVE INGREDIENT” (BTC CORPORATION, priority 2022, published 2025).

Columns and labels:
[1] = system: p-AMPK, p-Sirt1, p-p38, p-Nrf2 in C2C12 cells; experiment: Western blot of proteins related with PGC-1α activation in C2C12 cells; format: cell-based, mice; settings: C2C12, 0.36 μg/mL (Cr 5 μg/mL); for Protein expression level p-AMPK / Protein expression level p-Nrf2 / Protein expression level p-Sirt1 / Protein expression level p-p38: 7 days; for p-AMPK/AMPK ratio / p-Nrf2/Nrf2 ratio / p-Sirt1/Sirt1 ratio / p-p38/p38 ratio: control G1 = 1.00
Protocol: (§1) C2C12 cells were dispensed into a 6-well plate at 2×10^5 cells/well and stabilized for 24 hours. In order to investigate the effect of each test substance on muscle cell differentiation, each test substance was added to the myocyte differentiation medium. The cells were cultured for 4 days (mRNA analysis) or 7 days (protein analysis) after exchanging the cell culture medium with the myocyte differentiation medium treated with each test substance, as shown in Table 2.
C2C12 cells were dispensed into a 6-well plate at 2×10^5 cells/well and stabilized for 24 hours. The cells were cultured for 7 days after exchanging the culture medium with a myocyte differentiation medium containing the test substance. After the induction of differentiation for 7 days, the cells were homogenized by adding a lysis buffer (20 mmol/L HEPES, pH 7.5, 150 mmol/L NaCl, 1% Triton X-100, 1 mmol/L EDTA, 1 mmol/L EGTA, 100 mmol/L NaF, 10 mmol/L sodium pyrophosphate, 1 mmol/L Na3VO4, 20 μg/mL aprotinin, 10 μg/mL antipain, 10 μg/mL leupeptin, 80 μg/mL benzamidine HCl, 0.2 mmol/L PMSF) and a total cell lysate was obtained through centrifugation. The protein quantity of the total cell lysate was measured using a BCA protein assay kit (Thermo Scientific). The total cell lysate (50 μg) was separated by 10% sodium dodecyl sulfate polyacrylamide gel electrophoresis (SDS-PAGE) and then transferred to a polyvinylidene difluoride membrane (Milipore). The membrane was blocked for 1 hour in 5% skim milk-TBST (20 mmol/L Tris·HCl, pH 7.5, 150 mmol/L NaCl, 0.1% Tween 20) and then incubated for 16 hours at 4° C. or for 1 hour at room temperature after adding antibodies. Thereafter, horseradish peroxidase (HRP)-linked anti-rabbit IgG or HRP-linked anti-mouse IgG was added and the mixture was stirred for 1 hour. The detected protein bands were visualized by enhanced chemiluminescence using a Luminata™ Forte Western HRP substrate (Millipore). The level of protein expression was quantified using the ImageQuant™ LAS 500 imaging system (GE Healthcare Bio-Sciences AB).
The result of western blot analysis conducted using the total cell lysate obtained by treating with the test substance to investigate the effect of the test substance on the changes in proteins associated with PGC-1α activation is shown in Table 6.
Based on the western blot analysis result, the activity of each protein was evaluated from the ratio of activation.

[2] = system: TFam, CPT1-β, mtDNA in C2C12 cells; experiment: mRNA expression related with mitochondrial replication in C2C12 cells (real-time RT-PCR); format: cell-based, mice; settings: C2C12, 0.36 μg/mL (Cr 5 μg/mL), control G1 = 1.00
Protocol: as §1
(§2) C2C12 cells were dispensed into a 6-well plate at 2×10^5 cells/well and stabilized for 24 hours. The cells were cultured for 2 or 4 days after replacing the cell culture with a myocyte differentiation medium containing the test substance. After collecting the cells, total RNA was isolated using an RNeasy Plus Mini kit (QIAGEN), and quantified using a micro-volume spectrophotometer (BioSpec-nano, Shimadzu). RNAs with an OD260/280 value greater than 1.8 were used for experiment.
(§3) After obtaining cDNA from the total RNA (2 μg) using a HyperScript™ RT master mix kit (GeneAll Biotechnology), real-time PCR was performed using a Rotor-Gene 300 PCR kit (Corbett Research) and a Rotor-Gene™ SYBR Green kit (QIAGEN). Quantitative analysis of the gene expression was performed using the Rotor-Gene 6000 Series System Software program (Corbett Research).
The effect of the treatment of C2C12 cells with the test substances on the mRNA expression of mtDNA, Tfam and CPT-1β associated with mitochondrial replication was investigated.

[3] = system: GSY, SIRT1, PPARγ in C2C12 cells; experiment: mRNA expression of genes related with energy in C2C12 cells; format: cell-based, mice; settings: C2C12, 0.36 μg/mL (Cr 5 μg/mL), control G1 = 1.00
Protocol: as §1, §2, §3
The result of investigating the effect of the compositions according to Examples 1 to 4 on the mRNA expression of GSY, SIRT1 and PPARγ involved in the energy metabolism of muscle cells is shown in Table 11.

[4] = system: gastrocnemius muscle (GA); experiment: Glycogen content in muscle (gastrocnemius muscle, GA); format: in vivo, ICR mice; settings: 6 weeks
Protocol: After an acclimatization period of 1 week, healthy animals were selected and divided into 6 groups according to the randomized block design. The animals were divided into (G1) a non-exercise control group, (G2) a non-exercise+7 mg/kg body weight (BW) Example 1 group, (G3) a non-exercise+7 mg/kg BW Example 2 group, (G4) a non-exercise+7 mg/kg BW Example 3 group, (G5) a non-exercise+7 mg/kg BW Example 4 group, (G6) an exercise control group, (G7) an exercise+7 mg/kg BW Example 1 group, (G8) an exercise+7 mg/kg BW Example 2 group, (G9) an exercise+7 mg/kg BW Example 3 group, (G10) an exercise+7 mg/kg BW Example 4 group, and (G11) an exercise+75 mg/kg BW Cr dose group. Each test group consisted of 10 animals.
A muscle tissue fluid was prepared to measure glycogen content and enzymatic activity in the muscle tissue. 1 mL of PBS was added to the extracted quadriceps femoris muscle (QF), gastrocnemius muscle (GA), soleus muscle (SOL) and extensor digitorum longus muscle (EDL), and the skeletal muscles were homogenized with a homogenizer. The homogenized solution was centrifuged at 5,000 rpm for 10 minutes and then used as a muscle tissue fluid. The amount of proteins in the muscle tissue was measured using a BCA protein assay kit (Thermo Scientific).
The glycogen content in the liver and skeletal muscle (GA) was measured using a glycogen assay kit according to the method presented by the manufacturer (Abcam).
Accordingly, the glycogen content in the muscle (GA) collected at the end of the test was measured.

[5] = system: PGC1α, AMPK, p38, Nrf2 in gastrocnemius muscle (GA); experiment: Western blot of proteins associated with PGC-1α activation in gastrocnemius muscle (GA); format: in vivo, ICR mice
[6] = treadmill exercise, 7 mg/kg BW (Cr 75 mg/kg BW)
[7] = GA muscle, treadmill exercise, 7 mg/kg BW (Cr 75 mg/kg BW), G1 = 1.00
[8] = GA muscle, non-exercise, 7 mg/kg BW, G1 = 1.00

Structure (SMILES)	Protein expression level p-AMPK [1]	Protein expression level p-Nrf2 [1]	Protein expression level p-Sirt1 [1]	Protein expression level p-p38 [1]	p-AMPK/AMPK ratio [1]	p-Nrf2/Nrf2 ratio [1]	p-Sirt1/Sirt1 ratio [1]	p-p38/p38 ratio [1]	mRNA expression CPT1-β [2]	mRNA expression Tfam [2]	mRNA expression PPARγ [3]	mRNA expression Sirt1 [3]	Glycogen content in 1 mg of GA [4, 6]	Total glycogen content in GA [4, 6]	further results
CN(CC(=O)O)C(=N)N.O [Cr, Creatine monohydrate, reference compound]	104.6 ± 14.4 % of control group	116.2 ± 11.4 % of control group	114.0 ± 11.1 % of control group	151.5 ± 41.0 % of control group	1.09 ± 0.13	1.20 ± 0.26	1.11 ± 0.10	1.15 ± 0.29	0.93 ± 0.20	0.48 ± 0.07	2.93 ± 1.32	1.13 ± 0.18	3.32 ± 0.21^+ μg/mg GA	1350.5 ± 73.7^+ μg/GA	p-AMPK/AMPK ratio [5, 7]: 1.43 ± 0.13; p-Nrf2/Nrf2 ratio [5, 7]: 1.35 ± 0.17; p-PGC1α/PGC1α ratio [5, 7]: 2.28 ± 0.84^++; p-p38/p38 ratio [5, 7]: 1.94 ± 0.16^+
CC(C)=CCC[C@](C)(O)C1CC[C@]2(C)C1[C@H](O)CC1[C@@]3(C)C[C@@H](O)C(OC4OC(CO)C(O)C(O)C4OC4OC(CO)C(O)C(O)C4O)C(C)(C)C3CC[C@]12C (some centres unmarked) [Example 1, Gypenoside L]	117.7 ± 7.2 % of control group	135.1 ± 1.6 % of control group	143.4 ± 5.6 % of control group	133.1 ± 7.1 % of control group	1.27 ± 0.25	1.50 ± 0.11	1.38 ± 0.06	1.27 ± 0.07	1.83 ± 0.41	0.91 ± 0.10	1.16 ± 0.47	1.40 ± 0.22	3.38 ± 0.12^+ μg/mg GA	1404.4 ± 83.3^+ μg/GA	mRNA expression mtDNA [2]: 1.29 ± 0.41; mRNA expression GSY [3]: 2.71 ± 0.32; Glycogen content in 1 mg of GA ([4]; non-exercise, 7 mg/kg BW): 3.56 ± 0.15 μg/mg GA; Total glycogen content in GA ([4]; non-exercise, 7 mg/kg BW): 1442.1 ± 76.2 μg/GA; p-AMPK/AMPK ratio ([5]; 7 mg/kg): 1.41 ± 0.14; p-Nrf2/Nrf2 ratio ([5]; 7 mg/kg): 1.30 ± 0.16; p-PGC1α/PGC1α ratio ([5]; 7 mg/kg): 1.98 ± 0.34^+; p-p38/p38 ratio ([5]; 7 mg/kg): 1.86 ± 0.13^+; p-AMPK/AMPK ratio [5, 8]: 1.22 ± 0.09; p-Nrf2/Nrf2 ratio [5, 8]: 1.02 ± 0.06; p-PGC1α/PGC1α ratio [5, 8]: 1.14 ± 0.07; p-p38/p38 ratio [5, 8]: 1.71 ± 0.16
